Reference: patent publication US7022701B2, “Indolylalkylamine derivatives as 5-hydroxytryptamine-6 ligands” (Wyeth, priority 2001, dated 2006)
Where a name gives a salt, the structure may show the parent alone. Read-outs that look alike come from different tables or passages of the source.

Target: T1, human cloned 5-HT6 receptors (Homo sapiens, UniProt P50406)
T1 construct: expressed in transfected cells; host or cells: Hela cells
Experiment: 5-HT6 binding affinity, [3H]-LSD displacement on membranes of Hela cells expressing the receptor
Procedure: The affinity of test compounds for the serotonin 5-HT6 receptor is evaluated in the following manner. Cultured Hela cells expressing human cloned 5-HT6 receptors are harvested and centrifuged at low speed (1,000×g) for 10.0 min to remove the culture media. The harvested cells are suspended in half volume of fresh physiological phosphate buffered saline solution and recentrifuged at the same speed. This operation is repeated. The collected cells are then homogenized in ten volumes of 50 mM Tris.HCl (pH 7.4) and 0.5 mM EDTA. The homogenate is centrifuged at 40,000×g for 30.0 min and the precipitate is collected. The obtained pellet is resuspended in 10 volumes of Tris.HCl buffer and recentrifuged at the same speed. The final pellet is suspended in a small volume of Tris.HCl buffer and the tissue protein content is determined in aliquots of 10–25 μl volumes. […] The volume of the suspended cell membranes is adjusted to give a tissue protein concentration of 1.0 mg/ml of suspension. The prepared membrane suspension (10 times concentrated) is aliquoted in 1.0 ml volumes and stored at −70° C. until used in subsequent binding experiments.
Binding experiments are performed in a 96 well microtiter plate format, in a total volume of 200 μl. […] The test compounds are added in 20.0 μl volume.
The bound complex caught on the filter disk is allowed to air dry and the radioactivity is measured in a Packard TopCount® equipped with six photomultiplier detectors, after the addition of 40.0 μl Microscint®-20 scintillant to each shallow well. The unifilter plate is heat-sealed and counted in a PackardTopCount® with a tritium efficiency of 31.0%.
Binding in the presence of varying concentrations of test compound is expressed as a percentage of specific binding in the absence of test compound. The results are plotted as log % bound versus log concentration of test compound.

[1] = [3H]-LSD 3.0 nM, membranes of Hela cells expressing human cloned 5-HT6 receptors, 120 min at room temperature, read-out: 5-HT6 Binding Ki

T1 sequence (P50406 whole entry): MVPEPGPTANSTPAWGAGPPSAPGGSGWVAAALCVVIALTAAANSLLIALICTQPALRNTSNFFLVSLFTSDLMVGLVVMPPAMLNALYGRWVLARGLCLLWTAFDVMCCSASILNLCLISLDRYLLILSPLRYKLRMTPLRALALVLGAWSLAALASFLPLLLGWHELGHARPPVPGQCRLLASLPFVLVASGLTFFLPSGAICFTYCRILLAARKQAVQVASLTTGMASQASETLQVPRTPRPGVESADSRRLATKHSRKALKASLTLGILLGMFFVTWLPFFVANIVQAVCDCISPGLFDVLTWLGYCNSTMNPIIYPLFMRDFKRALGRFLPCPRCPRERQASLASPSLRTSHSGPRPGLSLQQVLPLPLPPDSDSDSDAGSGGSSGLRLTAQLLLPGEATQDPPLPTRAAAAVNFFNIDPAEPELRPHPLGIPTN

CNCCc1cn(S(=O)(=O)c2c(Cl)nc3sccn23)c2ccccc12 [Example 3, (2-[1-(6–Chloroimidazo[2,1-b]thiazole-5-sulfonyl)-1H-indol-3-yl]ethyl}methyl amine]
Ki: 0.019 µM

CN(C)CCc1cn(S(=O)(=O)c2c(Cl)nc3sccn23)c2ccccc12 [Example 4, {2-[1-(6-chloro-imidazo[2,1-b][1,3]thiazole-5-sulfonyl)-1H-indol-3-yl]ethyl}dimethylamine]
Ki: 0.001 µM

O=S(=O)(c1c(Cl)nc2sccn12)n1cc(CCNCc2ccccc2)c2ccccc21 [Example 5, benzyl-{2-[1-(6-chloro-imidazo[2,1-b][1,3]thiazole-5-sulfonyl)-1H-indol-3-yl]ethyl}amine]
Ki: 0.004 µM

O=S(=O)(c1c(Cl)nc2sccn12)n1cc(CCN2CCCC2)c2ccccc21 [Example 6, 1-(6-chloro-imidazo[2,1-b][1,3]thiazole-5-sulfonyl)-3-(2-pyrrolidin-1-ylethyl)-1H-indole]
Ki: 0.005 µM

CN1CCN(CCc2cn(S(=O)(=O)c3c(Cl)nc4sccn34)c3ccccc23)CC1 [Example 7, 1-(6-chloro-imidazo[2,1-b][1,3]thiazole-5-sulfonyl)-3-[2-(4-methylpiperazin-1-yl)ethyl]-1H-indole]
Ki: 0.007 µM

CN(CCc1cn(S(=O)(=O)c2c(Cl)nc3sccn23)c2ccccc12)Cc1ccccc1 [Example 9, benzyl-{2-[1-(6-chloro-imidazo[2,1-b][1,3]thiazole-5-sulfonyl)-1H-indol-3-yl]ethyl}methylamine]
Ki: 0.005 µM

O=S(=O)(c1c(Cl)nc2sccn12)n1cc(CCNCCc2ccccc2)c2ccccc21 [Example 10, {2-[1-(6-chloro-imidazo[2,1-b][1,3]thiazole-5-sulfonyl)-1H-indol-3-yl]ethyl}phenethylamine]
Ki: 0.041 µM

O=C(O)C1CCCN1CCc1cn(S(=O)(=O)c2c(Cl)nc3sccn23)c2ccccc12 (stereo not shown) [Example 11, 1-{2-[1-(6-chloro-imidazo[2,1-b][1,3]thiazole-5-sulfonyl)-1H-indol-3-yl]ethyl}pyrrolidine-2-carboxylic acid]
Ki: 0.03 µM

CC(N)Cc1cn(S(=O)(=O)c2c(Cl)nc3sccn23)c2ccccc12 (stereo not shown) [Example 12, 2[1-(6–Chloroimidazo[2,1-b]thiazole-5-sulfonyl)-1H-indol-3-yl]-1-methylethylamine Hydrochloride]
Ki: 0.002 µM

C[C@H](N)Cc1cn(S(=O)(=O)c2c(Cl)nc3sccn23)c2ccccc12 [Example 15, (S)-2-[1-(6–Chloroimidazo[2,1-b]thiazole-5-sulfonyl)-1H-indol-3-yl]-1-methylethylamine Hydrochloride]
Ki: 0.006 µM

C[C@@H](N)Cc1cn(S(=O)(=O)c2c(Cl)nc3sccn23)c2ccccc12 [Example 16, ®-2-[1-(6 Chloroimidazo[2,1-b]thiazole-5-sulfonyl)-1H-indol-3-yl]-1-methylethylamine Hydrochloride]
Ki: 0.002 µM

NCCc1cn(S(=O)(=O)c2c(Cl)nc3ccccn23)c2ccccc12 [Example 17, 2-[1-(2-chloro-imidazo[1,2-a]pyridine-3-sulfonyl)-1H-indol-3-yl]ethylamine]
Ki: 0.014 µM

NCCc1cn(S(=O)(=O)c2c(Cl)nc3sc(Cl)cn23)c2ccccc12 [Example 18, 2-[1-(2,6-dichloro-imidazo[2,1-b][1,3]thiazole-5-sulfonyl)-1H-indol-3-yl]ethylamine]
Ki: 0.008 µM

CNCCc1cn(S(=O)(=O)c2c(Cl)nc3ccccn23)c2ccccc12 [Example 20, {2-[1-(2-chloro-imidazo[1,2-a]pyridine-3-sulfonyl)-1H-indol-3-yl]ethyl}methylamine]
Ki: 0.011 µM

CNCCc1cn(S(=O)(=O)c2c(Cl)nc3sc(Cl)cn23)c2ccccc12 [Example 21, {2-[1-(2,6-dichloro-imidazo[2,1-b][1,3]thiazole-5-sulfonyl)-1H-indol-3-yl]ethyl)methylamine]
Ki: 0.012 µM

CN(C)CCc1cn(S(=O)(=O)c2c(Cl)nc3ccccn23)c2ccccc12 [Example 23, {2-[1-(2-chloro-imidazo[1,2-a]pyridine-3-sulfonyl)-1H-indol-3-yl]ethyl}dimethyamine]
Ki [1]: 0.01 µM

CN(C)CCc1cn(S(=O)(=O)c2c(Cl)nc3sc(Cl)cn23)c2ccccc12 [Example 24, {2-[1-(2,6-dichloro-imidazo[2,1-b][1,3]thiazole-5-sulfonyl)-1H-indol-3-yl]ethyl}dimethylamine]
Ki: 0.01 µM

COc1ccc2c(c1)c(CCN)cn2S(=O)(=O)c1c(Cl)nc2sccn12 [Example 30, 2-[1-(6-chloro-imidazo[2,1-b][1,3]thiazole-5-sulfonyl)-5-methoxy-1H-indol-3-yl]ethylamine]
Ki: 0.011 µM

COc1ccc2c(CCN)cn(S(=O)(=O)c3c(Cl)nc4sccn34)c2c1 [Example 31, 2-[1-(6-chloro-imidazo[2,1-b][1,3]thiazole-5-sulfonyl)-6-methoxy-1H-indol-3-yl]ethylamine]
Ki: 0.013 µM

NCCc1cn(S(=O)(=O)c2c(Cl)nc3sccn23)c2ccc(Br)cc12 [Example 32, 2-[5-bromo-1-(6-chloro-imidazo[2,1-b][1,3]thiazole-5-sulfonyl)-1H-indol-3-yl]ethylamine]
Ki: 0.074 µM

NCCc1cn(S(=O)(=O)c2c(Cl)nc3sccn23)c2ccc(OCc3ccccc3)cc12 [Example 33, 2-[5-benzyloxy-1-(6-chloro-imidazo[2,1-b][1,3]thiazole-5-sulfonyl)-1H-indol-3-yl]ethylamine]
Ki: 0.169 µM

Cc1ccc2c(c1)c(CCN)cn2S(=O)(=O)c1c(Cl)nc2sccn12 [Example 34, 2-[1-(6-chloro-imidazo[2,1-b][1,3]thiazole-5-sulfonyl)-5-methyl-1H-indol-3-yl]ethylamine]
Ki: 0.031 µM

Cc1ccc2c(CCN)cn(S(=O)(=O)c3c(Cl)nc4sccn34)c2c1 [Example 35, 2-[1-(6-chloro-imidazo[2,1-b][1,3]thiazole-5-sulfonyl)-6-methyl-1H-indol-3-yl]ethylamine]
Ki: 0.006 µM

Cc1cccc2c(CCN)cn(S(=O)(=O)c3c(Cl)nc4sccn34)c12 [Example 36, 2-[1-(6-chloro-imidazo[2,1-b][1,3]thiazole-5-sulfonyl)-7-methyl-1H-indol-3-yl]ethylamine]
Ki: 0.348 µM

NCCc1cn(S(=O)(=O)c2c(Cl)nc3sccn23)c2ccc(O)cc12 [Example 37, 3-(2-amino-ethyl)-1-(6-chloro-imidazo[2,1-b][1,3]thiazole-5-sulfonyl)-1H-indol-5-ol]
Ki: 0.004 µM

NCCc1cn(S(=O)(=O)c2c(Cl)nc3sccn23)c2ccc(F)cc12 [Example 38, 2-[1-(6-chloro-imidazo[2,1-b][1,3]thiazole-5-sulfonyl)-5-fluoro-1H-indol-3-yl]ethylamine]
Ki: 0.009 µM

NCCc1cn(S(=O)(=O)c2c(Cl)nc3sccn23)c2cc(F)ccc12 [Example 39, 2-[1-(6-chloro-imidazo[2,1-b][1,3]thiazole-5-sulfonyl)-6-fluoro-1H-indol-3-yl]ethylamine]
Ki: 0.005 µM

NCCc1cn(S(=O)(=O)c2cnc3sccn23)c2ccccc12 [Example 40, 2-{1-[(imidazo[2,1-b][1,3]thiazol-5-yl)sulfonyl]-1H-indol-3-yl}ethylamine]
Ki: 0.0012 µM

NCCCc1cn(S(=O)(=O)c2c(Cl)nc3sccn23)c2ccc(F)cc12 [Example 45, 3-{1-[(6–Chloroimidazo[2,1-b][1,3]thiazol-5-yl)sulfonyl]-5-fluoro-1H-indol-3-yl}propan-1-amine]
Ki [1]: 0.048 µM

{2-[1-(2-chloro-benzo[d]imidazo[2,1-b][1,3]thiazole-3-sulfonyl)-1H-indol-3-yl]ethyl}dimethylamine [Example 25]
Ki [1]: 0.037 µM

{2-[1-(2-chloro-benzo[d]imidazo[2,1-b][1,3]thiazole-3-sulfonyl)-1H-indol-3-yl]ethyl}methylamine [Example 22]
Ki [1]: 0.051 µM
